Data from patent US20100222396A1 (Novartis AG, priority 2009, published 2010).

Legend:
[1] = target: T1, human orexin 1 receptor (hOx1R) (Homo sapiens, UniProt O43613); assay: Radioligand binding assay ([125I]orexin A competition), hOx1R; settings: CHO or HEK cell membranes, 1 h room temperature
T1 construct: expressed in transfected cells
T1 sequence (O43613 1-425): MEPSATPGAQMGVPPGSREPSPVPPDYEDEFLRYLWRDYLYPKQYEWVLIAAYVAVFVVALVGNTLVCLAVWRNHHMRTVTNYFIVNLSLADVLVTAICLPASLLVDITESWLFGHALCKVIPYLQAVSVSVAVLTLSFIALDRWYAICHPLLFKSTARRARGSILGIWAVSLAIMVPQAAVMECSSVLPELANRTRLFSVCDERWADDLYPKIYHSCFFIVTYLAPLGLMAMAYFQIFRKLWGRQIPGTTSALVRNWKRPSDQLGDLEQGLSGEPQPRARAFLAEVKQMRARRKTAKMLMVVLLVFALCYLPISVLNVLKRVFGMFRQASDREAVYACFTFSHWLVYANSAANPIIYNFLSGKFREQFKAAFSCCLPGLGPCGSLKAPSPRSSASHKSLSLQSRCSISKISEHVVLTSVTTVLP
Procedure, shortened: (§1)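 Membranes from CHO or HEK cells expressing the human receptor, incubated 1 h at room temperature with […] [125I]orexin A and compound in HEPES pH 7.5 buffer with BSA, MgCl2, CaCl2 and tween.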

[2] = target: T2, human orexin 2 receptor (hOx2R) (Homo sapiens, UniProt O43614); assay: Radioligand binding assay ([125I]orexin A competition), hOx2R; settings: CHO or HEK cell membranes, 1 h room temperature
T2 construct: expressed in transfected cells
T2 sequence (O43614 1-444): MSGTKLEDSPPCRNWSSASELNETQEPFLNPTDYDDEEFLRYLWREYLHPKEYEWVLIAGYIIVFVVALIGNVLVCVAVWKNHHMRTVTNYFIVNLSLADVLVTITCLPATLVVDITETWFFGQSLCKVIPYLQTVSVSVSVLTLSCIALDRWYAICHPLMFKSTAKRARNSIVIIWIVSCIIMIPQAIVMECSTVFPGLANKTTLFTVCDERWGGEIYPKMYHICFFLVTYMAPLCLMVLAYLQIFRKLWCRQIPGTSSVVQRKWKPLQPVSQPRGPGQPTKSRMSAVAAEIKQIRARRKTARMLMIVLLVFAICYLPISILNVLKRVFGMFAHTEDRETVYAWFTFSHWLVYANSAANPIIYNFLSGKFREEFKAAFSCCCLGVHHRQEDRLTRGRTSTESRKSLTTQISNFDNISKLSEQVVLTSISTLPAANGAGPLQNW
Procedure, shortened: as §1

[3] = target: T1, human orexin 1 receptor (hOx1R); assay: Calcium accumulation in cells (FLIPR), antagonism of orexin A, hOx1R; format: cell-based; settings: for Kd: cells expressing human orexin 1 receptor, IC50 vs orexin A converted by Cheng and Prusoff correction
Procedure, shortened: (§2)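 Serum-starved receptor-expressing cells were loaded with Fluo-4-AM (2 μM) plus probenecid (0.1 mM) in HEPES buffer, pH 7.4, with 1% BSA, and Ca2+ fluorescence was read on FLIPR. Compounds (10^−9–10^−5 M) were added first, and orexin A was added one hour later to measure antagonism.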

[4] = target: T2, human orexin 2 receptor (hOx2R); assay: Calcium accumulation in cells (FLIPR), antagonism of orexin A, hOx2R; format: cell-based; settings: cells expressing human orexin 2 receptor; IC50 vs orexin A converted by Cheng and Prusoff correction
Procedure, shortened: as §2

| Structure (SMILES) | Kd [1] | Kd [2] | inhibition at 10 µM ([3]; measured at a concentration of 10 μM of compound (cells marked ^a)) | Kd [4] | Kd [3] |
| --- | --- | --- | --- | --- | --- |
| CN(C(=O)c1cccc2ccn(C)c12)[C@H](CCNC(=O)c1ccccn1)Cc1ccccc1 [Example 36, 1-Methyl-1H-indole-7-carboxylic acid {(S)-1-benzyl-3-[(pyridine-2-carbonyl)-amino]-propyl}-methyl-amide] | 853 nM | 468 nM | 37% | 565 nM |  |
| CN(C(=O)c1ccc2[nH]ccc2c1)[C@H](CCNC(=O)c1ccccn1)Cc1ccccc1 [Example 7, 1H-Indole-5-carboxylic acid {(S)-1-benzyl-3-[(pyridine-2-carbonyl)-amino]-propyl}-methyl-amide] | 7 nM | 41 nM |  | 40 nM | 16 nM |
| CN(C(=O)c1cccc2cc[nH]c12)[C@H](CCNC(=O)c1ccccn1)Cc1ccccc1 [Example 38, 1H-Indole-7-carboxylic acid {(S)-1-benzyl-3-[(pyridine-2-carbonyl)-amino]-propyl}-methyl-amide] | 86 nM | 590 nM |  | 162 nM | 35 nM |
| CN(C(=O)c1ccccc1)[C@H](CCNC(=O)c1ccccn1)Cc1ccccc1 [Example 37, Pyridine-2-carboxylic acid [(S)-3-(benzoyl-methyl-amino)-4-phenyl-butyl]-amide] | 358 nM | 479 nM |  | 440 nM | 836 nM |
| CN(C(=O)c1ccc2c(c1)CCO2)[C@H](CCNC(=O)c1ccccn1)Cc1ccccc1 [Example 29, Pyridine-2-carboxylic acid {(8)-3-[(2,3-dihydro-benzofuran-5-carbonyl)-methyl-amino]-4-phenyl-butyl}-amide] | 518 nM | 374 nM |  | 157 nM | 2190 nM |
| CCCN(C(=O)c1ccc2c(c1)OCO2)[C@H](CCNC(=O)c1ccccn1)Cc1ccccc1 [Example 13, Pyridine-2-carboxylic acid {(S)-3-[(benzo[1,3]dioxole-5-carbonyl)-propyl-amino]-4-phenyl-butyl}-amide] | 810 nM | 107 nM |  | 74 nM | 2210 nM |
| CN(C(=O)c1cc(F)cc(F)c1)[C@H](CCNC(=O)c1ccccn1)Cc1ccccc1 [Example 34, Pyridine-2-carboxylic acid {(S)-3-[(3,5-difluoro-benzoyl)-methyl-amino]-4-phenyl-butyl}-amide] | 253 nM | 466 nM |  | 558 nM | 731 nM |
